The values below come from US20080119463A1, “4-Anilino-3-quinolinecarbonitriles for the treatment of acute myelogenous leukemia (AML)” (Wyeth, priority 2006, published 2008).

Read-outs that look alike come from different tables or passages of the source.

The test system of experiment [1] is U937 cells. Description: proliferation assay of human AML cell line U937 (Cell Titer Glo, 3 days). In kind it is cell-based. The settings on record: 3 days growth, Cell Titer Glo luminescence, read-out: IC50 (μM) from proliferation assays of human AML cell lines. Here is the method:
(§1) These compounds were prepared according to previously published methods (Boschelli, D. H., et. al., J. Med. Chem., 44, 3965 (2001); Boschelli, D. H., et. al., J. Med. Chem., 44, 822 (2001); Boschelli, D. H., et. al., Bioorg. Med. Chem. Lett., 13, 3797 (2003); Boschelli, D. H., et. al., J. Med. Chem., 47, 1599 (2004); and Ye, F. et al., 221st National Meeting of the American Chemical Society, San Diego, Calif. (April, 2001)), hereby incorporated by reference. For this study, 1×10^2 to 1×10^3 cells were plated in 95 μl of growth medium in each well of a 96-well microtiter plate. Compounds were added in 5 μl of medium such that the final concentration of DMSO in the medium was 0.25%. Cells were allowed to grow in a cell culture incubator (37° C.) for 3 days, at which time 100 μl of Promega Cell Titer Glo agent was added. Luminescence (lum) was measured in an Envision microplate reader. Data were processed by first obtaining % inhibition (100−(lum+cpd/lum−cpd); cpd […]). The data were then analyzed with the LSW IC50 calculation model ligand-receptor binding/hyperbolic (y=Bmax/(1+(x/IC50)). The IC50 is the concentration of test compound needed to reduce the total amount of cell proliferation by 50%.
For relevant experiments described above, standard growth medium for a particular cell line was used. For example, the growth medium for U937 cells is: RPMI 1640 supplemented with glutamine, 10% fetal bovine serum, and 50 μg/ml of gentamicin.
Background: In ATP-based viability assays light output follows the ATP content of the culture.

The subject of experiment [2] is KG-1a cells. Description: proliferation assay of human AML cell line KG-1a (Cell Titer Glo, 3 days). In kind it is cell-based. The settings on record: 72 h, 3 days growth, Cell Titer Glo luminescence, read-out: IC50 (μM) from proliferation assays of human AML cell lines. The protocol:
as §1
For relevant experiments described above, standard growth medium for a particular cell line was used. […]

Turning to `COc1cc(Nc2c(C#N)cnc3cc(-c4ccc(CN5CCN(C)CC5)cn4)ccc23)c(Cl)cc1Cl` [4-(2,4-dichloro-5-methoxy-anilino)-7-{5-[(4-methyl-piperazin-1-yl)-methyl]-2-pyridinyl]-quinoline-3-carbonitrile], the IC50 in experiment [1] (Homo sapiens, U-937, 72 h) was determined as 2.4 µM. Take `COc1cc(Nc2c(C#N)cnc3cc(-c4coc(CN5CCN(C)CC5)c4)c(OC)cc23)c(Cl)cc1Cl` [4-[(2,4-dichloro-5-methoxy-phenyl)amino]-6-methoxy-7-{5-[(4-methyl-piperazin-1-yl)methyl]-3-furyl}-quinoline-3-carbonitrile]: the IC50 in experiment [2] is 0.78 µM. On to `COc1cc2cc3c(Nc4cc(OC)c(OC)c(OC)c4)c(C#N)cnc3cc2cc1OCCN1CCOCC1` [4-(3,4,5-methoxy-anilino)-7-methoxy-8-[2-(4-morpholinyl)-ethoxy]-benzo[g]-quinoline-3-carbonitrile], for which, in experiment [1], the IC50 was 2.1 µM.

`COc1cc(Nc2c(C#N)cnc3cc(OCCCN4CCN(C)CC4)c(OC)cc23)c(Cl)cc1Cl` [4-[(2,4-dichloro-5-methoxy-phenyl)amino]-6-methoxy-7-[3-(4-methyl-piperazin-1-yl)-propoxy]-quinoline-3-carbonitrile]: the IC50 in experiment [2] was 1.11 µM. As for `COc1cc(Nc2c(C#N)cnc3cc4cc(OCCN5CCOCC5)c(OC)cc4cc23)c(Cl)cc1C` [4-(2-chloro-4 methyl-5-methoxy-anilino)-7-methoxy-8-[2-(4-morpholinyl)-ethoxy]-benzo[g]-quinoline-3-carbonitrile], in experiment [1] (Homo sapiens, U-937, 72 h), the IC50 is 1.2 µM.

For `COc1cc(Nc2c(C#N)cnc3cc(-c4ccc(CN5CCOCC5)cn4)ccc23)c(Cl)cc1Cl` [4-(2,4-dichloro-5-methoxy-anilino)-7-{5-[(4-morpholinyl)-methyl]-2-pyridinyl]-quinoline-3-carbonitrile], the IC50 in experiment [1] (Homo sapiens, U-937, 72 h) is 0.73 µM. Same read-out and setting: for `COc1cc(Nc2c(C#N)cnc3cc4cc(OCCN5CCOCC5)c(OC)cc4cc23)c(Cl)cc1Cl` [4-(2,4-dichloro-5-methoxy-anilino)-7-methoxy-8-[2-(4-morpholinyl)-ethoxy]-benzo[g]-quinoline-3-carbonitrile] the value was 5.1 µM.
